# Measurements taken from ChEMBL document CHEMBL1156304, “Pyridinyl aminohydantoins as small molecule BACE1 inhibitors” (Bioorg Med Chem Lett, 2010).
# Assays:
# Cathepsin D = Cathepsin D (Homo sapiens, UniProt P07339); experiment: Inhibition of cathepsin D by FRET assay
# Beta-secretase 2 = target: T1, Beta-secretase 2 (Homo sapiens, UniProt Q9Y5Z0); experiment: Inhibition of BACE2 by FRET assay
# T1 sequence (Q9Y5Z0 whole entry): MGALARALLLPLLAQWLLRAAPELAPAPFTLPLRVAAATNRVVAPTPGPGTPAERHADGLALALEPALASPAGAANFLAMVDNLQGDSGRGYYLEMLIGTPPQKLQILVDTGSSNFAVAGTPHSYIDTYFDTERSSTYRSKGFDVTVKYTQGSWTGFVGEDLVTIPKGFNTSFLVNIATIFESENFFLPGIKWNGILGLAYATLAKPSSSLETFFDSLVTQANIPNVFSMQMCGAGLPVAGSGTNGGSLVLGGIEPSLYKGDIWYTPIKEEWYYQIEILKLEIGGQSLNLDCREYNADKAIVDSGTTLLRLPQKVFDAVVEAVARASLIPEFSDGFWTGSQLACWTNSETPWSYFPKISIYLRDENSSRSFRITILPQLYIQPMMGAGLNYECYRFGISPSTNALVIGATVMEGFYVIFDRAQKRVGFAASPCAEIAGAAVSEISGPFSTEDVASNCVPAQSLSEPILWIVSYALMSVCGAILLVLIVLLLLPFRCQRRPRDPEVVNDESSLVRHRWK
# [1] = Selectivity ratio of IC50 for BACE2 to IC50 for BACE1
# Beta-secretase 1 = Beta-secretase 1 (Homo sapiens, UniProt P56817); experiment: Inhibition of BACE1 by FRET assay
# Sequence of Beta-secretase 1 (P56817 whole entry): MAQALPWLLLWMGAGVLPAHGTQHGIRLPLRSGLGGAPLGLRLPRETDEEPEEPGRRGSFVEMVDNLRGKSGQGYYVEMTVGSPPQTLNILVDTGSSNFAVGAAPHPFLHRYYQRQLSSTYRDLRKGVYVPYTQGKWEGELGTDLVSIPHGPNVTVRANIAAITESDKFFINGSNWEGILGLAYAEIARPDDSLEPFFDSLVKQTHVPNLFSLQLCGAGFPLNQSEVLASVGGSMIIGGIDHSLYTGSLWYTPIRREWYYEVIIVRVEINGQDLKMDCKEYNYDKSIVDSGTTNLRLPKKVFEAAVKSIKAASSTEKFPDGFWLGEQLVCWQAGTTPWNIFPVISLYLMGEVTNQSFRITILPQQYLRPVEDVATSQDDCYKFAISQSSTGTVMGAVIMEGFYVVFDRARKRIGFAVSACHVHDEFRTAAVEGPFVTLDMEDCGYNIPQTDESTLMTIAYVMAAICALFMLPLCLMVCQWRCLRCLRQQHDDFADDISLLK
# Sequence of Cathepsin D (P07339 65-162 limits assumed): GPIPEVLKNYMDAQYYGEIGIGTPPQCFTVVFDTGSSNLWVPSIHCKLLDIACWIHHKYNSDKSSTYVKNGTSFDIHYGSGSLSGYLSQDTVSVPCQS
# Sequence of Cathepsin D (P07339 169-412 limits assumed): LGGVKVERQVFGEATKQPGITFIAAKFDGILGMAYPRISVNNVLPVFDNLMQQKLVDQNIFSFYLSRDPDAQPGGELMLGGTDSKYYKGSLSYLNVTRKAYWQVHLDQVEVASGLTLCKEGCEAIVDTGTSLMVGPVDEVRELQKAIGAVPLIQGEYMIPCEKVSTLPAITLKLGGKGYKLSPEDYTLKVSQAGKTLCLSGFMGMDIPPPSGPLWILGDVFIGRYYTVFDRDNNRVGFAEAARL
IC50 (Cathepsin D),IC50 (Beta-secretase 2),Ratio IC50 [1],IC50 (Beta-secretase 1),Compound
46.8 µM,570 nM,–,–,CN1C(=O)C(c2ccncc2)(c2cccc(-c3ccoc3)c2)N=C1N (configuration not stated)
26.4 µM,700 nM,–,–,CN1C(=O)[C@](c2ccncc2)(c2cccc(-c3cc(F)ccc3F)c2)N=C1N
31.6 µM,190 nM,–,–,CN1C(=O)C(c2ccncc2)(c2cccc(-c3ccsc3)c2)N=C1N (configuration not stated)
9.4 µM,120 nM,–,–,CN1C(=O)C(c2ccncc2)(c2cccc(-c3cc(F)ccc3F)c2)N=C1N (racemic)
–,–,0.8,–,CN1C(=O)C(c2ccccc2)(c2ccncc2)N=C1N (configuration not stated)
34.1 µM,60 nM,1,60 nM,CN1C(=O)C(c2ccncc2)(c2cccc(-c3cc(F)cc(F)c3)c2)N=C1N (configuration not stated)
12.2 µM,20 nM,0.7,30 nM,COc1cccc(-c2cccc(C3(c4ccncc4)N=C(N)N(C)C3=O)c2)c1 (configuration not stated)
–,–,1.1,–,CN1C(=O)C(c2ccncc2)(c2cccc(-c3ccccc3)c2)N=C1N (configuration not stated)
24.2 µM,40 nM,1,40 nM,CN1C(=O)C(c2ccncc2)(c2cccc(-c3cccc(C#N)c3)c2)N=C1N (configuration not stated)
–,–,8,–,CN1C(=O)C(c2ccncc2)(c2cccc(-c3cccnc3)c2)N=C1N (configuration not stated)
14.1 µM,140 nM,0.6,250 nM,CN1C(=O)C(c2ccncc2)(c2cccc(-c3cccc(OC(F)(F)F)c3)c2)N=C1N (configuration not stated)
5.5 µM,100 nM,–,–,CN1C(=O)[C@@](c2ccncc2)(c2cccc(-c3cc(F)ccc3F)c2)N=C1N
–,1010 nM,–,–,CN1C(=O)C(c2ccncc2)(c2cccc(-c3cnccn3)c2)N=C1N (configuration not stated)
13.1 µM,130 nM,3.3,40 nM,CN1C(=O)C(c2ccncc2)(c2cccc(-c3cccc(F)c3F)c2)N=C1N (configuration not stated)
20.8 µM,80 nM,1.6,50 nM,CN1C(=O)C(c2ccncc2)(c2cccc(-c3cccc(F)c3)c2)N=C1N (configuration not stated)
17.4 µM,1000 nM,33,30 nM,CN1C(=O)C(c2ccncc2)(c2cccc(-c3cccnc3F)c2)N=C1N (configuration not stated)
